# Experiments:
# GalNAc salvage pathway = conditions: cited from earlier work
# host cells [1] = conditions: cited from earlier work; for side effects (e.g., cytotoxicity): compared to perbutanoylated, 3,4,6-tributanoylated or peracetylated counterparts; for cytotoxicity over prolonged exposure: beyond 2 to 3 days, up to and within two weeks
# [2] = test system: hexosamine biosynthetic pathway; conditions: cited from earlier work
# [3] = test system: individual sites of N-glycosylation; conditions: cited from earlier work
# cell surface sialylation = experiment: Overall sialylation of cell surface glycoconjugates after analog supplementation; format: cell-based
# sialic acid pathway = conditions: cited from earlier work; for efficiency relative to the unmodified sugar: sialic acid production as endpoint
# [4] = test system: human protein integrin α4 stably expressed in a CHO line; experiment: Azido-sugar labeling of integrin α4 in CHO cells (click biotinylation, streptavidin blot); format: cell-based; conditions: 100 μM, 24 hours
# Description: Whole cell lysate from cells treated with 100 μM 1,3,4-O-Bu3ManNAz for 24 hours and “click” chemistry biotinylated were probed with streptavidin (lane 1), and from the same whole cell lysate, integrin α4β1 was immunopurified using human […] antibody and probed with streptavidin (lane 2). Immunopurified integrin α4β1 was again incubated with the human anti-MUC1 antibody and re-purified (lane 3). The band in lane 4 was the same sample as lane 3 but probed with anti-human integrin α4.
# FIG. 2 depicts the result of treating the sample of FIG. 1, lane 3, with PNGAse F and sialidase, with samples then visualized using streptavidin HRP.
# The use of tri-butanoylated monosaccharides was examined, initially using 1,3,4-O-Bu3ManNAz to label integrin α4 in CHO cells.
# host cells [5] = conditions: cited from earlier work
smiles,measurement,setting,value
"CCCC(=O)OC1OC(CO)[C@H](OC(=O)CCC)[C@H](OC(=O)CCC)C1NC(C)=O (stereo partly shown) [1,3,4-O-Bu3GalNAc]",flux into the GalNAc salvage pathway,GalNAc salvage pathway,high levels of flux
same,"side effects (e.g., cytotoxicity)",host cells [1],minimal side effects
"CCCC(=O)OC1OC(CO)[C@@H](OC(=O)CCC)[C@H](OC(=O)CCC)C1NC(C)=O (stereo partly shown) [1,3,4-O-Bu3GlcNAc]",flux into the hexosamine biosynthetic pathway,[2],high levels of flux
same,"side effects (e.g., cytotoxicity)",host cells [1],minimal side effects
"CCCC(=O)OC1OC(CO)[C@@H](OC(=O)CCC)[C@H](OC(=O)CCC)C1NC(C)=O (stereo partly shown) [1,3,4-O-Bu3ManNAc, tri-butanoylated ManNAc]","increase in sialylation, about ⅓ of glycosylation sites with dramatic increases",[3]; about ⅓ of sites,≥ 8 fold
same,"increase in sialylation, about ⅓ of glycosylation sites with modest increase",[3]; about ⅓ of sites,≤ 2 fold
same,"level of sialylation, about ⅓ of glycosylation sites that did not respond",[3]; about ⅓ of sites,remained unchanged
same,increase in degree of sialylation of specific N-glycans,[3],≥ 8 fold
same,increase in overall sialylation (cell surface / glycoconjugates),cell surface sialylation,50 to 75%
same,whole molecule toxicity,host cells [1],lack “whole molecule” toxicity
same,growth inhibition,host cells [1]; in most cell lines,mild growth inhibition
same,flux into the sialic acid pathway,sialic acid pathway,high levels of flux
"CCCC(=O)OC1OC(CO)[C@@H](OC(=O)CCC)[C@H](OC(=O)CCC)C1NC(=O)CN=[N+]=[N-] (stereo partly shown) [1,3,4-O-Bu3ManNAz]",labeling of integrin α4,[4],definitive labeling
"CC(=O)NC1C(OC(C)=O)OC(COC(C)=O)[C@@H](OC(C)=O)[C@@H]1OC(C)=O (stereo partly shown) [Ac4ManNAc, peracetylated ManNAc]",increase in overall sialylation (cell surface / glycoconjugates),cell surface sialylation,10 to 25%
same,cytotoxicity over prolonged exposure,host cells [1],cytotoxicity over prolonged exposure to cells
same,efficiency relative to the unmodified sugar,sialic acid pathway,several hundred fold more efficient
"CCCC(=O)OCC1OC(OC(=O)CCC)C(NC(C)=O)[C@@H](OC(=O)CCC)[C@@H]1OC(=O)CCC (stereo partly shown) [Bu4ManNAc, perbutanoylated ManNAc, reference compound]",cytotoxicity over prolonged exposure,host cells [1],host cells died
same,effect on cell growth,host cells [1]; within 2 or 3 days of treatment,slowed cell growth
same,efficiency relative to the unmodified sugar,sialic acid pathway,"~2,100 fold"
CC(=O)NC1C(O)OC(CO)[C@@H](O)[C@@H]1O (stereo partly shown) [ManNAc],increase in overall sialylation (cell surface / glycoconjugates),cell surface sialylation,5 to 10%
same,concentration supplemented to the cell culture media for a robust increase in sialic acid production,sialic acid pathway,up to 50 mM
CCCC(=O)O.COc1cccc(C#CCON=C2CN3CCC2C3)c1 (stereo not shown) [n-butyrate],concentration required to elicit desired cell responses,host cells [5],≥ 10 mM
